From PubChem BioAssay AID330 (DTP/NCI, 2004) come the findings set out here.

Structures are written as SMILES. Where “and” joins values, the source holds several entries; their conditions need not be identical. Equal values may be shown once. Inconclusive results and toxic doses are left out.

The test concerns P388 leukemia ip, CD2F1 mice, survival T/C. As to the kind of experiment: NCI In Vivo Anticancer Drug Screen. Data for tumor model P388 Leukemia (intraperitoneal) in CD2F1 (CDF1) mice. The note with it: endpoint: median survival time, higher = longer survival. In short, it runs like this: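 Mice carrying the transplanted tumor received test compound or vehicle. Survival was recorded in each group, and the value is the treated-group measurement divided by that of the vehicle-treated control group.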

[1] abbreviates: dose: 50.0 mg/kg/injection, schedule: Q01DX009 (ip), vehicle: Klucel (hydroxypropylcellulose) (HPC).
[2] abbreviates: dose: 100.0 mg/kg/injection, schedule: Q01DX009 (ip), vehicle: Klucel (hydroxypropylcellulose) (HPC).
Setting [3] is: dose: 200.0 mg/kg/injection, schedule: Q01DX009 (ip), vehicle: Klucel (hydroxypropylcellulose) (HPC).

As for `CC1(C)N=C(N)N=C(N)N1c1ccc(CCCCc2ccc(S(=O)(=O)F)cc2Cl)c(Cl)c1`, the T/C is 107 % of control (dose: 0.13 mg/kg/injection, schedule: Q03HX016 (ip), vehicle: other); 116 % of control (dose: 0.25 mg/kg/injection, schedule: Q03HX016 (ip), vehicle: other); 124 % of control (dose: 0.5 mg/kg/injection, schedule: Q03HX016 (ip), vehicle: other); 111 % of control (dose: 1.0 mg/kg/injection, schedule: Q01DX005 (ip), vehicle: other); 165 % of control (dose: 1.98 mg/kg/injection, schedule: Q01DX009 (ip), vehicle: saline with Tween-80); 120 % of control (dose: 2.0 mg/kg/injection, schedule: Q01DX005 (ip), vehicle: other). Besides, the T/C is, setting by setting: (dose: 2.0 mg/kg/injection, schedule: Q04DX002 (ip), vehicle: other) 109 % of control; (dose: 2.82 mg/kg/injection, schedule: Q01DX009 (ip), vehicle: saline with Tween-80) 168 % of control; (dose: 3.89 mg/kg/injection, schedule: Q01DX009 (ip), vehicle: Klucel (hydroxypropylcellulose) (HPC)) 152 % of control and 163 % of control; (dose: 4.0 mg/kg/injection, schedule: Q01DX005 (ip), vehicle: other) 121 % of control; (dose: 4.0 mg/kg/injection, schedule: Q04DX002 (ip), vehicle: other) 118 % of control; (dose: 4.03 mg/kg/injection, schedule: Q01DX009 (ip), vehicle: saline with Tween-80) 176 % of control. Besides, the T/C was 176 % of control (dose: 5.76 mg/kg/injection, schedule: Q01DX009 (ip), vehicle: saline with Tween-80); 155 % of control (dose: 6.25 mg/kg/injection, schedule: Q01DX009 (ip), vehicle: distilled water + Tween-80); 163 % of control (dose: 6.25 mg/kg/injection, schedule: Q01DX009 (ip), vehicle: saline with Tween-80); 164 % of control (dose: 6.48 mg/kg/injection, schedule: Q01DX009 (ip), vehicle: Klucel (hydroxypropylcellulose) (HPC)); 119 % of control (dose: 8.0 mg/kg/injection, schedule: Q01DX005 (ip), vehicle: other); 116 % of control (dose: 8.0 mg/kg/injection, schedule: Q04DX002 (ip), vehicle: other). The T/C reads like this: (dose: 8.23 mg/kg/injection, schedule: Q01DX009 (ip), vehicle: saline with Tween-80) 197 % of control; (dose: 8.64 mg/kg/injection, schedule: Q01DX005 (ip), vehicle: Klucel (hydroxypropylcellulose) (HPC)) 156 % of control; (dose: 10.8 mg/kg/injection, schedule: Q01DX009 (ip), vehicle: Klucel (hydroxypropylcellulose) (HPC)) 166 % of control and 182 % of control; (dose: 11.76 mg/kg/injection, schedule: Q01DX009 (ip), vehicle: saline with Tween-80) 212 % of control; (dose: 12.5 mg/kg/injection, schedule: Q01DX009 (ip), vehicle: distilled water + Tween-80) 155 % of control; (dose: 16.0 mg/kg/injection, schedule: Q01DX005 (ip), vehicle: other) 118 % of control. In addition, the T/C by setting is: (dose: 16.0 mg/kg/injection, schedule: Q04DX002 (ip), vehicle: other) 106 % of control; (dose: 16.8 mg/kg/injection, schedule: Q01DX009 (ip), vehicle: other) 100 % of control; (dose: 16.8 mg/kg/injection, schedule: Q01DX009 (ip), vehicle: saline with Tween-80) 250 % of control; (dose: 18.0 mg/kg/injection, schedule: Q01DX009 (ip), vehicle: Klucel (hydroxypropylcellulose) (HPC)) 163 % of control and 214 % of control; (dose: 24.0 mg/kg/injection, schedule: Q01DX005 (ip), vehicle: Klucel (hydroxypropylcellulose) (HPC)) 164 % of control; (dose: 24.0 mg/kg/injection, schedule: Q01DX009 (ip), vehicle: saline with Tween-80) 256 % of control. The T/C was 160 % of control (dose: 25.0 mg/kg/injection, schedule: Q01DX009 (ip), vehicle: distilled water + Tween-80); 102 % of control (dose: 25.0 mg/kg/injection, schedule: Q01DX009 (oral), vehicle: saline with Tween-80); 163 % of control and 236 % of control (dose: 30.0 mg/kg/injection, schedule: Q01DX009 (ip), vehicle: Klucel (hydroxypropylcellulose) (HPC)); 111 % of control (dose: 32.0 mg/kg/injection, schedule: Q04DX002 (ip), vehicle: other); 228 % of control (dose: 34.28 mg/kg/injection, schedule: Q01DX009 (ip), vehicle: saline with Tween-80); 172 % of control (dose: 40.0 mg/kg/injection, schedule: Q01DX005 (ip), vehicle: Klucel (hydroxypropylcellulose) (HPC)). Also, the T/C is, setting by setting: under setting [1], 87 % of control; (dose: 50.0 mg/kg/injection, schedule: Q01DX009 (oral), vehicle: saline with Tween-80) 102 % of control; (dose: 75.0 mg/kg/injection, schedule: Q01DX009 (ip), vehicle: saline with Tween-80) 195 % of control; (dose: 89.0 mg/kg/injection, schedule: Q04DX003 (ip), vehicle: saline with Tween-80) 173 % of control; (dose: 100.0 mg/kg/injection, schedule: Q01DX009 (oral), vehicle: saline with Tween-80) 107 % of control; (dose: 110.0 mg/kg/injection, schedule: Q01DX009 (ip), vehicle: saline with Tween-80) 86 % of control. Further, the T/C runs as follows: (dose: 133.0 mg/kg/injection, schedule: Q04DX003 (ip), vehicle: saline with Tween-80) 188 % of control; (dose: 200.0 mg/kg/injection, schedule: Q01DX009 (oral), vehicle: saline with Tween-80) 105 % of control; (dose: 200.0 mg/kg/injection, schedule: Q04DX003 (ip), vehicle: saline with Tween-80) 307 % of control; (dose: 400.0 mg/kg/injection, schedule: Q01DX009 (oral), vehicle: saline with Tween-80) 99 % of control.
Consider `N#CC(=O)Nc1cccc(Cl)c1`, for which the T/C (dose: 15.0 mg/kg/injection, schedule: Q01DX005 (ip), vehicle: saline with Tween-80) was 107 % of control and the T/C (dose: 30.0 mg/kg/injection, schedule: Q01DX005 (ip), vehicle: saline with Tween-80) is 103 % of control.
Regarding `O=C1C2CC(CN3CCCCC23)C2CCCCN12` (stereo not drawn), the T/C (dose: 6.2 mg/kg/injection, schedule: Q01DX007 (ip), vehicle: carboxymethylcellulose (CMC)) was 100 % of control; the T/C (dose: 12.5 mg/kg/injection, schedule: Q01DX007 (ip), vehicle: carboxymethylcellulose (CMC)) was 91 % of control; the T/C (dose: 25.0 mg/kg/injection, schedule: Q01DX007 (ip), vehicle: carboxymethylcellulose (CMC)) was 91 % of control; the T/C (dose: 37.5 mg/kg/injection, schedule: Q01DX009 (ip), vehicle: saline) was 95 % of control; the T/C (dose: 75.0 mg/kg/injection, schedule: Q01DX009 (ip), vehicle: saline) was 102 % of control; the T/C (dose: 150.0 mg/kg/injection, schedule: Q01DX009 (ip), vehicle: saline) was 101 % of control.
For the compound `CCCCCCN1CCS(=O)(=O)CC1`, the T/C runs as follows: under setting [1], 91 % of control; under setting [2], 94 % of control; under setting [3], 90 % of control.
As to `O=C(C1CC2CCN1CC2)N1CCN(C(=O)C2CC3CCN2CC3)CC1` (stereo not drawn), the T/C is 98 % of control (dose: 1.56 mg/kg/injection, schedule: Q01DX005 (ip), vehicle: saline); 102 % of control and 96 % of control (dose: 3.12 mg/kg/injection, schedule: Q01DX005 (ip), vehicle: saline); 97 % of control (dose: 6.25 mg/kg/injection, schedule: Q01DX005 (ip), vehicle: saline); 101 % of control (dose: 60.0 mg/kg/injection, schedule: Q01DX005 (ip), vehicle: saline with Tween-80); 101 % of control (dose: 120.0 mg/kg/injection, schedule: Q01DX005 (ip), vehicle: saline with Tween-80).
With `N#C/C(=C/c1ccc(Cl)cc1)C(N)=O`, the T/C is, setting by setting: (dose: 25.0 mg/kg/injection, schedule: Q01DX001 (ip), vehicle: saline with Tween-80) 102 % of control; (dose: 50.0 mg/kg/injection, schedule: Q01DX001 (ip), vehicle: saline with Tween-80) 104 % of control; (dose: 100.0 mg/kg/injection, schedule: Q01DX001 (ip), vehicle: saline with Tween-80) 97 % of control; (dose: 200.0 mg/kg/injection, schedule: Q01DX001 (ip), vehicle: saline with Tween-80) 97 % of control.
For the compound `CN(C)C(=S)C(O)(c1ccccc1)c1ccccc1`, the T/C runs as follows: under setting [1], 90 % of control; under setting [2], 100 % of control; under setting [3], 97 % of control.
`O=C(O)/C(=C\c1ccncc1)c1cccc2ccccc12`: the T/C is 101 % of control (dose: 50.0 mg/kg/injection, schedule: Q01DX009 (ip), vehicle: saline with Tween-80); 101 % of control (dose: 100.0 mg/kg/injection, schedule: Q01DX009 (ip), vehicle: saline with Tween-80); 111 % of control (dose: 200.0 mg/kg/injection, schedule: Q01DX009 (ip), vehicle: saline with Tween-80); 98 % of control (dose: 400.0 mg/kg/injection, schedule: Q01DX009 (ip), vehicle: saline with Tween-80).
